Results published in patent US4248879A, “Benzopyranotriazoles” (Beecham Group Limited, priority 1978, dated 1981).

Legend:
[1] = system: rat PCA; assay: Passive Cutaneous Anaphylaxis (PCA) in rats; format: in vivo, Male Wistar rats; conditions: S.C.
Procedure: Serum containing heat-labile homocytotropic antibody was raised in rats to crystallized ovalbumin XOA by the method of Mota (I. Mota, Immunology, 7, 681, (1964)) using Bordettela pertussis vaccine as adjuvant.
Passive cutaneous anaphylaxis (PCA) was carried out by a method based on that of Ovary and Bier, (A. Ovary and O. G. Bier, Proc. Soc. Exp. Bio. Med 81, 584, (1952)) as modified by Goose and Blair. (Immunology 16, 749 (1969)).
Male Wistar rats of 250-300 g were give 0.1 ml of each of six twofold serial dilutions of pooled antiserum in 0.9% saline injected intradermally into separate sites in their shaved backs. Later (72 hours) the animals were challenged by intravenous injection of 0.3 ml of a 1% solution of ovalbumin in an isotonic solution of saline buffered with 0.05 M, pH 7.2, Sorenson Buffer (PBS), mixed with 0.2 ml of a 5% solution of Pontamine Sky Blue (6BX C.I. 24410, Raymond A. Lamb, London) in isotonic saline. The rats were killed after 20 minutes and the diameter of the blue wheals at the antibody injection sites was measured on the outer surface of the skin. The starting dilution of the serum was adjusted so that there was no response, after challenge, at the injection site of the highest dilution and a maximum response at the lowest dilutions. Typically six twofold serial dilutions of the serum from 1/4 to 1/128 were used.
Compounds were tested for their ability to reduce the diameter of the wheals at those intradermal sites which in control animals gave less than maximum response. Each dose of the compound was administered to six rats at a measured time prior to intravenous challenge with ovalbumin. Control groups of six rats were given the same volume (0.2 ml: 100 g^-1) of carrier fluid at the same time prior to the challenge.
The results were calculated as follows: % inhibition of PCA=100 (1-a/b) where a=the sum of the diameters of the wheals produced in the test animal at the sites of antibody dilutions as used in control groups and b=the mean sum of the diameters of the wheals produced in the control group of animals at those antibody sites where at least five out of six of the animals gave less than maximum response. A typical variation in the control group of animals was SEM±6%.

[2] = LD50 (toxicity) in mice; conditions: mouse, in vivo
Procedure: The LD50 of the compound of Example 6 (d) is between 20 to 80 mg/kg i.v. and between 125 to 500 mg/kg per os, in mice.

[3] = PBS with NaHCO3, 10 mins before antigen challenge, 10 mg/kg
[4] = PBS with NaHCO3, 30 mins before antigen challenge, 10 mg/kg
[5] = PBS with NaHCO3, 10 mins before antigen challenge, 20 mg/kg
[6] = PBS with NaHCO3, 30 mins before antigen challenge, 20 mg/kg
[7] = PBS with NaHCO3, 10 mins before antigen challenge, 5 mg/kg
[8] = PBS with NaHCO3, 30 mins before antigen challenge, 5 mg/kg

With O=c1c2ccccc2oc2nn[nH]c12 [Example 1, 9-Oxo-1H,9H-benzopyrano[2,3-d]-v-triazole] the “% Inhibitions of rat PCA” value [1, 3] was 83% and the “% Inhibitions of rat PCA” value [1, 4] was 29%.
In the case of Cc1ccc2oc3nn[nH]c3c(=O)c2c1 [Example 3, 7-Methyl-9-oxo-1H,9H-benzopyrano[2,3]-v-triazole], the “% Inhibitions of rat PCA” value [1, 3] is reported as 78% and the “% Inhibitions of rat PCA” value [1, 4] is reported as 41%.
In the case of COc1ccc2oc3nn[nH]c3c(=O)c2c1 [Example 4, 7-Methoxy-9-oxo-1H,9H-benzopyrano[2,3-d]-v-triazole], the “% Inhibitions of rat PCA” value [1, 5] is reported as 66% and the “% Inhibitions of rat PCA” value [1, 6] is reported as 35%.
With Cc1ccc2c(=O)c3[nH]nnc3oc2c1C [Example 5, 5,6-Dimethyl-9-oxo-1H,9H-benzopyrano[2,3-d]-v-triazole] the “% Inhibitions of rat PCA” value [1, 5] was 64% and the “% Inhibitions of rat PCA” value [1, 6] was 14%.
With Cc1cc2oc3nn[nH]c3c(=O)c2cc1C [Example 6d] the “% Inhibitions of rat PCA” value [1, 7] was 72%, the “% Inhibitions of rat PCA” value [1, 8] was 22% and the LD50 ([2]; iv) was 20 to 80 mg/kg. The LD50 ([2]; po, per os) was 125 to 500 mg/kg.
In the case of Cc1ccc2oc3nn[nH]c3c(=O)c2c1C [Example 6e, 7,8-dimethyl-1H,9H-benzopyrano[2,3-d]-v-triazole], the “% Inhibitions of rat PCA” value [1, 7] is reported as 86% and the “% Inhibitions of rat PCA” value [1, 8] is reported as 45%.
In the case of Cc1cc(C)c2c(=O)c3[nH]nnc3oc2c1C [Example 7, 9-oxo-5,6,8-Trimethyl-1H,9H-benzopyrano[2,3-d]-v-triazole], the “% Inhibitions of rat PCA” value [1, 3] is reported as 40% and the “% Inhibitions of rat PCA” value [1, 4] is reported as 18%.
